Assay results as given in patent US9023851B2 (Merck Patent GmbH, priority 2010, dated 2015).

Experiments:
GCN2 = GCN2 (Homo sapiens, UniProt Q9P2K8); test: GCN2 kinase TR-FRET (Lanthascreen) assay; format: biochemical
Excerpt: GCN2: Assay Principle & Conditions
This assay can quantificate the activity of the serin kinase GCN2 (general control non-derepressible-2).
This kinase is involved in the stress metabolism of cells. It is activated upon starvation (amino acid depletion). Its natural substrate is eIF2a (eukaryotic initiation factor 2 alpha subunit), a translation factor, which gets activated (phosphorylated) by GCN2 in case of an amino acid bottleneck in the cells. This in turn leads to a halt of the protein synthesis. Inhibition of GCN2 results in stopping this mechanism: The cell can not stop protein production upon “starvation” stress.
The assay is run in two steps: the enzymatic reaction and the detection step. In the first step GCN2 is incubated with 10 μM ATP and 80 nM of the GFP-labelled substrate eIF2alpha at room temperature.
The enzymatic reaction is stopped by addition of EDTA. The amount of phosphorylated eIF2alpha is determined by TR-FRET (Lanthascreen): A complex is formed consisting of antibody and GFP labelled phospho-eIF2a, which allows a FRET upon exitation at 340 nm.
The GCN2-activity is directly proportional to the ratio of fluorescence units at the emission wavelengthh 520 nm (phosphopeptide-sensitive wavelength=emission of GFP) to the units at 495 nm (reference wavelength=emission of Terbium-chelate).
Assay Procedure • 4 uL enzyme solution (in assay buffer) • 1.5 uL compound (in cmpd dilution buffer/6.3% DMSO) • Incubation 20 min at RT • 4 uL substrate/ATP mix (in assay buffer) • Incubation 90 min at RT • 10 uL stop/detection mix (in antibody dilution buffer) • Incubation 60 min at RT • Readout Lanthascreen 340/495/5204

BTK = biological target: T1, BTK (Homo sapiens, UniProt Q06187); test: BTK enzymatic assay (Caliper LifeSciences technology); format: biochemical
T1 construct: purchased Carna Bioscience, Kobe, Japan
Procedure: (§1) Enzymatic Assays Using the Caliper LifeSciences Technology
(§2) The assays described here are performed on the Caliper Life Sciences LC3000 system This technology provides data on enzyme activity via measurement of the relative amounts of phosphorylated or unphosphorylated fluorescently labelled substrate peptide at the end of an enzymatic reaction. These different states of peptide are resolved by applying a potential difference across the sample. The presence of the charged phosphate group on the product (as opposed to the substrate) causes a different peptide mobility between the two peptides. This is visualized by excitation of the fluorescent label on the substrate and product peptides and represented as peaks within the analysis software.
(§3) In order to measure inhibitor activity of kinase inhibitors on this technology, a TTP Mosquito liquid handling instrument is used to place 0.25 ul of the appropriate concentration of inhibitor in 100% DMSO (for a dose response curve calculation) into each well of a 384-well plate. To this reaction components are added to a final volume of 25 ul. The table below indicates the sequences and concentrations for the assays described in this report. Standard components are 1 mM DTT (Sigma, D0632), 1 mM MgCl2 (Sigma, M1028), 100 mM HEPES pH 7.5 (Calbiochem, 391338), 0.015% Brij-35 (Sigma, B4184).
(§4) The reaction is incubated for 90 min at 25 C, and then stopped by the addition of 70 ul of Stop buffer (100 mM HEPES pH 7.5, 0.015% Brij-35, 10 mM EDTA (Sigma, E7889)).
(§5) The plate is read on a Caliper LC 3000 in an Off-Chip mobility shift assay format, on a 12-sipper chip. Unphosphorylated substrate and phosphorylated product peptide resolve as separate peaks allowing direct measurement of percentage of conversion of substrate to product. The percent conversion can be plotted against concentration of inhibitor to produce a sigmoidal dose response curve, from which an IC50 can be calculated using GeneData Condoseo or a similar product. Cellular activity assays

Src = biological target: T2, Src (Homo sapiens, UniProt P12931); test: cSrc enzymatic assay (Caliper LifeSciences technology); format: biochemical
T2 construct: purchased Carna Bioscience, Kobe, Japan
Procedure: as §1, §2, §3, §4, §5

KDR = biological target: T3, KDR (Homo sapiens, UniProt P35968); test: KDR enzymatic assay (Caliper LifeSciences technology); format: biochemical
T3 construct: purchased BPS Bioscience, CA, USA
In short: (§6)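 Off-chip mobility-shift assay quantifying conversion of a fluorescent peptide substrate to phosphorylated product. Reactions in 100 mM HEPES pH 7.5, 1 mM DTT, 1 mM MgCl2, 0.015% Brij-35, 90 min at 25 C, stopped with EDTA. IC50 from sigmoidal fit of percent conversion versus inhibitor concentration.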

Syk = biological target: T4, Syk (Homo sapiens, UniProt P43405); test: Syk enzyme assay (flash plate / Caliper mobility shift); format: biochemical
T4 construct: purchased BPS Bioscience, CA, USA
In short: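 Flashplate format used 2.5 nM SYK, 400 nM biotinylated peptide and 10 µM ATP with 33P tracer, pH 7.5, 1 h at 30 °C, read by radioactivity. Caliper format ran 90 min at 25 °C in HEPES pH 7.5, reading percent peptide conversion by mobility shift. IC50s came from dose-response curves.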

ZAP-70 = biological target: T5, ZAP-70 (Homo sapiens, UniProt P43403); test: Zap70 enzymatic assay (Caliper LifeSciences technology); format: biochemical
T5 construct: purchased BPS Bioscience, CA, USA
T5 sequence (P43403 1-619): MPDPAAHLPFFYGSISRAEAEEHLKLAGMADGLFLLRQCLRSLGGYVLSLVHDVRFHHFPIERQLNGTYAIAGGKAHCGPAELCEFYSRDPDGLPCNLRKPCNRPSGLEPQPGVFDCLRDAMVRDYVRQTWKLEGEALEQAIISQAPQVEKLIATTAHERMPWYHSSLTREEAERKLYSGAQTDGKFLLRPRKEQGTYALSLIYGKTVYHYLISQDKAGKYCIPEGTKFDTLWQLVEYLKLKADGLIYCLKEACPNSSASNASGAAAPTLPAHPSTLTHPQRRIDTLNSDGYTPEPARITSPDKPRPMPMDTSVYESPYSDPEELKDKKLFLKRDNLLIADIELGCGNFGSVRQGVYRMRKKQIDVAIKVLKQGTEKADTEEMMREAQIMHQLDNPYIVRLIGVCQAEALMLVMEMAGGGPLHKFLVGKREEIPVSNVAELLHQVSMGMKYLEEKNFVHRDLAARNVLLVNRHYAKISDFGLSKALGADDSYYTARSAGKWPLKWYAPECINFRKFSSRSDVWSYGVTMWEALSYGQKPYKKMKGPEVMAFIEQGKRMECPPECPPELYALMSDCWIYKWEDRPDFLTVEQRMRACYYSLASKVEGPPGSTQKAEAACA
In short: as §6

Ramos cells = test: BCR crosslinking-induced BLNK phosphorylation (BLNK cell assay); format: cell-based; settings: Homo sapiens
Procedure: 1. BCR Crosslinking-Induced BLNK Phosphorylation
Ramos cells incubated overnight in IMDM medium containing 5% FCS were resuspended in IMDM medium without serum (3.3×10^6 cells/ml). 90 μl of cell suspension (300′000 cells) were incubated with 10 μl of SYK inhibitors (in 3% DMSO) for 20 minutes at 37° C., in 96 well plates. After preincubation with inhibitors, cells were activated with 10 μg/ml of goat antihuman anti-IgM for 10 minutes at 37° C. After stimulation, cells were fixed by addition of 80 μl of 4% paraformaldehyde followed by a 10 minutes incubation at RT and […] in 0.1% Triton X-100 in PBS. BLNK phosphorylation was detected by flow cytometry after staining of the cells with anti-BLNK-pY84-PE antibodies from BD pharmingen, for 45 minutes at RT. […]

[1] = RA Phase II studies in humans; cited from earlier work
[2] = murine model of RA, cited from earlier work
3LL lung carcinoma = settings: s.c. 3LL lung carcinoma in mice; cited from earlier work

T1 sequence (Q06187 whole entry): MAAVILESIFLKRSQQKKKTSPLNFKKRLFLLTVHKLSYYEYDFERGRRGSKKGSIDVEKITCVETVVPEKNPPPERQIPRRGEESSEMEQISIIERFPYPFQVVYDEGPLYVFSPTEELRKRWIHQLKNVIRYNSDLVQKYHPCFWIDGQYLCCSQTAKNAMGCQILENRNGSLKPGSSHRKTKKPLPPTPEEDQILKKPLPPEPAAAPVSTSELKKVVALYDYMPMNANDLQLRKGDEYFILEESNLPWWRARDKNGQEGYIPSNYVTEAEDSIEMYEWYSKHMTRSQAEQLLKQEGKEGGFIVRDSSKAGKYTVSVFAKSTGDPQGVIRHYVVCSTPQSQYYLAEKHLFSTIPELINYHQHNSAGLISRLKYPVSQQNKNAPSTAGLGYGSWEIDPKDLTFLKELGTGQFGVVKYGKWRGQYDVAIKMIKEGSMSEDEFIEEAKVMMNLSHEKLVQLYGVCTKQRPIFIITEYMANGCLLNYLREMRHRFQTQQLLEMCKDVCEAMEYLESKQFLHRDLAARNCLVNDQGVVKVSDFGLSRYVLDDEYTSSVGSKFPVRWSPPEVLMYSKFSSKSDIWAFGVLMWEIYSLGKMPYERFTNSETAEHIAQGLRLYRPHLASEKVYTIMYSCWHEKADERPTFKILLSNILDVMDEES
T3 sequence (P35968 20-1356): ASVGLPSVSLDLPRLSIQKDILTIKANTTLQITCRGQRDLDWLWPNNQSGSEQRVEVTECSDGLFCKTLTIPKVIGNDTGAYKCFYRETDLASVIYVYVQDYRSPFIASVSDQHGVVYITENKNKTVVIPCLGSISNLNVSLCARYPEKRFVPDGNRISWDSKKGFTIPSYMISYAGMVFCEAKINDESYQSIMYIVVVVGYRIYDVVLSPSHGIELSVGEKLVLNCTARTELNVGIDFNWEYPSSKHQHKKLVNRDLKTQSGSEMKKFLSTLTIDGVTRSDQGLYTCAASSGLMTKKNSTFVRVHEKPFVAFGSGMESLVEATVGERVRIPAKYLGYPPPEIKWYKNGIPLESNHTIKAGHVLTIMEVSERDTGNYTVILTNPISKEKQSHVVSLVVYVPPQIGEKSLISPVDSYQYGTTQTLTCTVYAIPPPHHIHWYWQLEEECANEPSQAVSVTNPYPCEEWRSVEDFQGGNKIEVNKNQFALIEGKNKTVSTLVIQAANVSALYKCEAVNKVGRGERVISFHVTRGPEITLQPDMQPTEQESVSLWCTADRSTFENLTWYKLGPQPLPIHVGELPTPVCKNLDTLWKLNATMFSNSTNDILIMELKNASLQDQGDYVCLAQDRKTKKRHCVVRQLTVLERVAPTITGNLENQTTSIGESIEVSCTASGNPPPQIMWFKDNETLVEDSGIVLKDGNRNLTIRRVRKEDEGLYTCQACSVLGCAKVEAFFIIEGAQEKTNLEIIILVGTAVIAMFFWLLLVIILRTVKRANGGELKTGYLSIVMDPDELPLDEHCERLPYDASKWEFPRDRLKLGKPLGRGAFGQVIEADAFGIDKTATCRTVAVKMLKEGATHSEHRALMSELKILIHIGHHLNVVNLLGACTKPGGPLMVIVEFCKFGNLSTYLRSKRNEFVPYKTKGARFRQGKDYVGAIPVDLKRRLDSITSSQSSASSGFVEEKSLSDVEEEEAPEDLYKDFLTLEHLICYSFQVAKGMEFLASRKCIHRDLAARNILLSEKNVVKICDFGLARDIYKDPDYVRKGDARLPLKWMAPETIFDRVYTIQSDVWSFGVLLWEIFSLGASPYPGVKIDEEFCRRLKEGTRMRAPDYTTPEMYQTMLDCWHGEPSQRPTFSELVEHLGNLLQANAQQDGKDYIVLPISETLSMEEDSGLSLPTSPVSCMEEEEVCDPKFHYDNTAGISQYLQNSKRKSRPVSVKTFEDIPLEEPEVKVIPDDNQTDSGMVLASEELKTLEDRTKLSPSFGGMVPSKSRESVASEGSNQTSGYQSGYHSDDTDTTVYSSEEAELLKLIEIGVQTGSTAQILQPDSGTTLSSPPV
GCN2, sequence (Q9P2K8 whole entry, species assumed): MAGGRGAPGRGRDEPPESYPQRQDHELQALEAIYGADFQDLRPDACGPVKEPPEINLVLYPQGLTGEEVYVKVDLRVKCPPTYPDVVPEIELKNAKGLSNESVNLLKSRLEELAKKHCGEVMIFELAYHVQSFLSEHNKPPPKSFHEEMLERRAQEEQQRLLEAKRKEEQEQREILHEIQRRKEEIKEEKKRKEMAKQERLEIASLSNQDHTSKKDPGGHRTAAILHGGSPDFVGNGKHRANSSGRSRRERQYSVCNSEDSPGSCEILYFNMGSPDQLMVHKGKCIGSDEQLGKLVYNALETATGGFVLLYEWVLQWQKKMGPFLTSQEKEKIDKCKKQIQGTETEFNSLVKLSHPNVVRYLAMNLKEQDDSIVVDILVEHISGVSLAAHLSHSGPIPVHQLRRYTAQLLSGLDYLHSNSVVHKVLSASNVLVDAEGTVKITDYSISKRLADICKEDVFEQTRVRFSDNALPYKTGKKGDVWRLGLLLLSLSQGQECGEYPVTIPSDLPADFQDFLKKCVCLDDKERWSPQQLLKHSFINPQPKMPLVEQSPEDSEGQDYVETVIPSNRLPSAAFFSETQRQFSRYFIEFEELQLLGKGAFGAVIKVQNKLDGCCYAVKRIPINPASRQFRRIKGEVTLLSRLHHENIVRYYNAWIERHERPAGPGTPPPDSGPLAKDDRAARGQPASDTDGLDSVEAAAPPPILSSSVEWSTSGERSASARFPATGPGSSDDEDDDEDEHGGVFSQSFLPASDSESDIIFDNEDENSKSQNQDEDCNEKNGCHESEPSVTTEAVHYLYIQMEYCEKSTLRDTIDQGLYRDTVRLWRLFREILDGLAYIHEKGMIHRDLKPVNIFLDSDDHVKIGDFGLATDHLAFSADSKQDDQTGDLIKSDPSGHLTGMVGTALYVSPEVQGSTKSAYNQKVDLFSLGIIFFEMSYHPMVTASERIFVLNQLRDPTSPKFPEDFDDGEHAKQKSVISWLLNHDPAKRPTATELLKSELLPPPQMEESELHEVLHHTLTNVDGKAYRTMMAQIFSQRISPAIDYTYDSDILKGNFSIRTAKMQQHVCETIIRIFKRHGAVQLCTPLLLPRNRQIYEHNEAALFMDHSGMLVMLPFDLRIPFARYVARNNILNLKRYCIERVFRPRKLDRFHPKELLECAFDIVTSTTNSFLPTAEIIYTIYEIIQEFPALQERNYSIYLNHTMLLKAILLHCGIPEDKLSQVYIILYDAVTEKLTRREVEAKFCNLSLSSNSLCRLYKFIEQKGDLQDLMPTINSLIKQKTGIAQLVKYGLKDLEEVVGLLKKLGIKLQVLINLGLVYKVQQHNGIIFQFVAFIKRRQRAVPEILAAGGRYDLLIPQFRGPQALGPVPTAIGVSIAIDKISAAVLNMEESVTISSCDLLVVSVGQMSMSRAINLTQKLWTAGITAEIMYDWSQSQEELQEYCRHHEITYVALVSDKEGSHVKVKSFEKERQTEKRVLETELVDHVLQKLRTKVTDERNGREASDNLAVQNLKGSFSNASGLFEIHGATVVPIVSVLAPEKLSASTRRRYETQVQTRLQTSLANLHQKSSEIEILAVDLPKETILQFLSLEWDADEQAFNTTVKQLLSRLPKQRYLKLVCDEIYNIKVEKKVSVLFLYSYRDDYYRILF
T2 sequence (P12931 whole entry): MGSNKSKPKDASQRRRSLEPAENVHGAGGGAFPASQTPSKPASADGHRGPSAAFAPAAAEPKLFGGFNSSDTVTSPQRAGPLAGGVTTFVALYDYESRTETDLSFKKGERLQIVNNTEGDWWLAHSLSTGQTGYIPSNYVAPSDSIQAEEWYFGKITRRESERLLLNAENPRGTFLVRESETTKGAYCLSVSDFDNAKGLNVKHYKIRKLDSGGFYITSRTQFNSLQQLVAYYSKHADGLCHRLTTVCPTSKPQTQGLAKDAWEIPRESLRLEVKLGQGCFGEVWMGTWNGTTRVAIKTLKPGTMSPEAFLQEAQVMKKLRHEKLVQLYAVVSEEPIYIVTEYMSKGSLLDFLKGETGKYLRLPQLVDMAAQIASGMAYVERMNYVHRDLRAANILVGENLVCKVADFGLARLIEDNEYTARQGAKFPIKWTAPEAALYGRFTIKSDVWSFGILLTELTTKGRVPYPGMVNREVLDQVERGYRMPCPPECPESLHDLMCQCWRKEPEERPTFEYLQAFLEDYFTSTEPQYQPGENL

Structure (SMILES)	IC50 (GCN2) [µM]	IC50 (Src) [µM]	IC50 (KDR) [µM]	IC50 (Syk) [µM]	IC50 (ZAP-70) [µM]	also measured
O=C1Nc2cc(Nc3nc4c(-c5nccs5)nccn4n3)ccc2OC1(F)F [Example C6, 2,2-Difluoro-6-(8-thiazol-2-yl-[1,2,4]triazolo[1,5-a]pyrazin-2-ylamino)-4H-benzo[1,4]oxazin-3-one]		3 to 50	3 to 50	3 to 50		IC50 (BTK): 3 to 50 µM
c1ccc(Nc2nc3c(-c4nccs4)nccn3n2)cc1 [Example C14, Phenyl-(8-thiazol-2-yl-[1,2,4]triazolo[1,5-a]pyrazin-2-yl)-amine]		3 to 50	3 to 50	3 to 50	3 to 50	IC50 (BTK): 3 to 50 µM
c1ccc(Cn2ncc3ccc(Nc4nc5c(-c6nccs6)nccn5n4)cc32)cc1 [Example C24, (1-Benzyl-1H-indazol-6-yl)-(8-thiazol-2-yl-[1,2,4]triazolo[1,5-a]pyrazin-2-yl)-amine]				0.3 to 3	3 to 50	IC50 (BTK): 3 to 50 µM
COc1cc(Nc2nc3c(-c4ccccc4)nccn3n2)cc(OC)c1 [Example C8, (3,5-Dimethoxy-phenyl)-(8-phenyl-[1,2,4]triazolo[1,5-a]pyrazin-2-yl)-amine]			< 0.3	< 0.3		IC50 (BTK): 3 to 50 µM
COc1cc(Nc2nc3c(-c4cccnc4)nccn3n2)cc(OC)c1 [Example C19, (3,5-Dimethoxy-phenyl)-(8-pyridin-3-yl-[1,2,4]triazolo[1,5-a]pyrazin-2-yl)-amine]		0.3 to 3	0.3 to 3	< 0.3	3 to 50	IC50 (BTK): 3 to 50 µM; IC50 (Ramos cells): 3 to 50 µM
c1cnc2cc(-c3nccn4nc(Nc5ccc(N6CCOCC6)cc5)nc34)ccc2c1 [Example C265, (4-Morpholin-4-yl-phenyl)-(8-quinolin-7-yl-[1,2,4]triazolo[1,5-a]pyrazin-2-yl)-amine]		0.3 to 3	< 0.3	< 0.3	0.3 to 3	IC50 (Ramos cells): 3 to 50 µM
COc1cc(Nc2ncc(F)c(Nc3ccc4c(n3)NC(=O)C(C)(C)O4)n2)cc(OC)c1OC [Example R406]						efficacy (ACR scores) [1]: efficacy (ACR scores improvement); tolerability [1]: good tolerability; clinical scores ([2]; orally available Syk inhibitor): significant improvement of clinical scores; serum cytokine concentrations and bone erosion [2]: significantly reduced serum cytokine concentrations, as well as bone erosion
N=C(NO)NCC[C@H](N)C(=O)O [N-hydroxy-nor-L-Arg]						tumor growth (3LL lung carcinoma): blocks growth of s.c. 3LL lung carcinoma in mice

Further lines, with some results ahead:

IC50 (GCN2) [µM]	IC50 (Src) [µM]	IC50 (KDR) [µM]	IC50 (Syk) [µM]	IC50 (ZAP-70) [µM]	Structure (SMILES)	also measured
< 10					Cn1ccnc1Sc1ccc(Nc2nc3c(-c4ccccc4)nccn3n2)cc1Cl [Example E7]	
< 10					Cc1cc(C)cc(Nc2nc3c(-c4cccnc4)nccn3n2)c1 [Example E6]	
< 10					COc1cc(OC)cc(-c2nccn3nc(Nc4cc(C)cc(C)c4)nc23)c1 [Example E5]	
< 10					c1ccc(Cn2ncc3ccc(Nc4nc5c(-c6nccs6)nccn5n4)cc32)cc1 [Example E9]	
	0.3 to 3	0.3 to 3	< 0.3	3 to 50	CN1CCN(c2ccc(Nc3nc4c(-c5ccc6c(cnn6C)c5)nccn4n3)cc2)CC1 [Example D15, [8-(1-Methyl-1H-indazol-5-yl)-[1,2,4]triazolo[1,5-a]pyrazin-2-yl]-[4-(4-methyl-piperazin-1-yl)-phenyl]-amine]	IC50 (Ramos cells): 3 to 50 µM
< 10					Cc1cccc(Nc2nc3c(-c4ccc(N5CCOCC5)cc4)nccn3n2)c1 [Example E4]	
	< 0.3	0.3 to 3	< 0.3	3 to 50	CN1CCN(c2ccc(Nc3nc4c(-c5cnc6ccccc6c5)nccn4n3)cc2)CC1 [Example D23, [4-(4-Methyl-piperazin-1-yl)-phenyl]-(8-quinolin-3-yl-[1,2,4]triazolo[1,5-a]pyrazin-2-yl)-amine]	IC50 (Ramos cells): 3 to 50 µM
< 10					Cc1cc(C)cc(Nc2nc3c(-c4ccc(N5CCOCC5)cc4)nccn3n2)c1 [Example E2]	
< 10					c1ccc(Cn2ncc3ccc(Nc4nc5c(-c6ccccc6)nccn5n4)cc32)cc1 [Example E8]	
	0.3 to 3	0.3 to 3	< 0.3	3 to 50	CN1CCN(c2ccc(Nc3nc4c(-c5cnn(C)c5)nccn4n3)cc2)CC1 [Example D18, [4-(4-Methyl-piperazin-1-yl)-phenyl]-[8-(1-methyl-1H-pyrazol-4-yl)-[1,2,4]triazolo[1,5-a]pyrazin-2-yl]-amine]	IC50 (Ramos cells): 3 to 50 µM
< 10					COc1ccc(Nc2nc3c(-c4cccnc4)nccn3n2)cc1OC [Example E10]	
< 10					FC(F)(F)c1cccc(Nc2nc3c(-c4ccc(N5CCOCC5)cc4)nccn3n2)c1 [Example E3]	
